# Tested on: WM3629 cells
# Assay: WM3629 Cell Proliferation Assay (1)
# Type: cell-based
# Conditions: not given
# Experimental: WM3629 Cell Proliferation Assay (1)
# WM3629 cells (#WM3629-01-0001) are obtained from Rockland Immunochemicals Inc (Gilbertsville, PA). Briefly, cells were grown in MCDB 153 medium (Sigma, #M7403, St. Louis, MO) supplemented with 20% Leibovitz's L-15 (ThermoFisher #11415-064, Waltham, MA), 2% heat inactivated fetal bovine serum (ThermoFisher, #A3840001, Waltham, MA), 5 μg/mL Insulin (Bovine Pancreas) (Sigma, #10516, St. Louis, MO), 1.68 mM Calcium Chloride (Sigma, #C-34006, St. Louis, MO) and 1% Penicillin/Streptomycin/L-Glutamine (ThermoFisher #10378016, Waltham, MA) at 37° C., 5% CO2, and 95% humidity. Cells are expanded until reaching 70-95% confluency at which point they are subcultured or harvested for assay use. A serial dilution of test compound is dispensed into a 96-well black clear bottom plate in triplicate. Four thousand five hundred cells are added per well in 200 μL complete growth medium in the 96-well plate. Plates are incubated for 67-72 hours at 37° C., 5% CO2, and 95% humidity. At the end of the incubation, 40 μL of a 440 μM solution of resazurin (Sigma, #199303, St. Louis, MO) in PBS is added to each well of the plate and plates are incubated for an additional 6-7 hours at 37° C., 5% CO2, and 95% humidity. Plates are read on a Synergy2 or equivalent reader (Biotek, Winooski VT) using an excitation of 540 nm and an emission of 600 nm. Data is analyzed using Prism software (GraphPad, San Diego, CA) to calculate IC50 values.
row,SMILES,IC50
1,CNC(=O)c1cc(-c2cc(-c3cc(NC(=O)c4ccnc(C5(C#N)CC5)c4)ccc3C)ncn2)ccn1 [Example 178],≤ 100 nM
2,Cc1ccc(NC(=O)c2ccnc(C3(C#N)CC3)c2)cc1-c1ccnc(-c2ccnc(NC(=O)C3CC3)c2)n1 [Example 180],≤ 100 nM
3,Cc1ncc(NC(=O)c2ccnc(C(C)(C)C#N)c2)cc1-c1cccc(-c2cc(NC(=O)C3CC3)ncn2)c1 [Example 181],≤ 100 nM

# Tested on: Miapaca-2 cells
# Assay: MiaPaca-2 Combination Cell proliferation Assay (1) with cobimetinib
# Type: cell-based
# Conditions: MiaPaca-2 cell proliferation, read-out: MiaPaca-2 Combo (1) IC50
# Experimental: MiaPaca-2 Combination Cell proliferation Assay (1)
# Miapaca-2 cells (catalog #CRL-1420) are obtained from the American Type Culture Collect (ATCC, Manassas, VA). Briefly, cells were grown in DMEM supplemented with 10% characterized fetal bovine serum (Invitrogen, Carlsbad, CA), 2.5% New Zealand sourced horse serum and 1% Penicillin/Streptomycin/L-Glutamine at 37° C., 5% CO2, and 95% humidity. Cells are expanded until reaching 70-95% confluency at which point they are subcultured or harvested for assay use. A serial dilution of test compound was dispensed into multiple 96-well black clear bottom plates in triplicate. A serial dilution of complete growth medium containing cobimetinib was prepared at twice the final concentration and 100 μL was dispensed across the test compound titration in triplicate. Three thousand cells are added per well in 100 μL complete growth medium in each 96-well plate. Plates are incubated for 67-72 hours at 37° C., 5% CO2, and 95% humidity. At the end of the incubation, 40 μL of a 440 μM solution of resazurin (Sigma, St. Louis, MO) in PBS is added to each well of the plate and plates are incubated for an additional 5-7 hours at 37° C., 5% CO2, and 95% humidity. Plates are read on a Synergy2 or equivalent reader (Biotek, Winooski VT) using an excitation of 540 nm and an emission of 600 nm. Drug synergy was assessed via BLISS analysis in the Combenefit software (Cancer Research UK Cambridge Institute, Cambridge, UK). Data is analyzed using Prism software (Graphpad, San Diego, CA) to calculate IC50 values. Shifts in test compound IC50 values are reported from top-constrained combination therapy curves.
row,SMILES,IC50
1,CC(=O)Nc1cc(-c2cc(-c3cc(NC(=O)c4ccnc(C(F)(F)F)c4)c(F)cc3C)cc(C)n2)ccn1 [Example 4],≤ 100 nM
2,Cc1cc(F)c(NC(=O)c2ccnc(C(F)(F)F)c2)cc1-c1ccnc(-c2ccnc(NC(=O)CN(C)C)c2)c1 [Example 7],100 to 500 nM
3,Cc1cc(F)c(NC(=O)c2ccnc(C(C)(C)C#N)c2)cc1-c1ccnc(-c2ccnc(NC=O)c2)c1 [Example 104],≤ 100 nM
4,CC(=O)Nc1cc(-c2cncc(-c3cc(NC(=O)c4cc(C(F)(F)F)ccn4)ccc3C)n2)ccn1 [Example 124],≤ 100 nM
5,Cc1ccc(NC(=O)c2ccnc(C(C)(C)C#N)c2)cc1-c1cccc(-c2ccnc3[nH]ncc23)c1 [Example 134],100 to 500 nM
6,CNc1cc(-c2cccc(-c3cc(NC(=O)c4ccnc(C(C)(C)C#N)c4)ccc3C)c2)ncn1 [Example 160],100 to 500 nM
7,Cc1ncc(NC(=O)c2ccnc(C(C)(C)C#N)c2)cc1-c1cccc(-c2ccnc(NC(=O)C3CC3)c2)n1 [Example 172],≤ 100 nM
8,Cc1ncc(NC(=O)c2ccnc(C(C)(C)C#N)c2)cc1-c1cccc(-c2cc(NC(=O)C3CC3)ncn2)c1 [Example 181],≤ 100 nM

# The remaining lines, values ahead:
row,IC50,SMILES
1,≤ 100 nM,CC(=O)Nc1cc(-c2ccnc(-c3cc(NC(=O)c4ccnc(C(C)(C)C#N)c4)ccc3C)n2)ccn1 [Example 103]
2,≤ 100 nM,Cc1ccc(NC(=O)c2ccnc(C(C)(C)C#N)c2)cc1-c1cncc(-c2ccnc(NC(=O)C3CC3)c2)n1 [Example 112]
3,≤ 100 nM,Cc1ccc(NC(=O)c2ccnc(C(F)F)c2)cc1-c1cncc(-c2ccnc(NC(=O)C3CC3)c2)n1 [Example 117]
4,≤ 100 nM,CC(=O)Nc1cc(-c2nccc(-c3cc(NC(=O)c4ccnc(C(C)(C)C#N)c4)ccc3C)n2)ccn1 [Example 118]
5,≤ 100 nM,CNC(=O)c1cc(-c2cc(-c3cc(NC(=O)c4cccc(C(C)(C)C#N)c4)ccc3C)ccn2)ccn1 [Example 127]
6,100 to 500 nM,CNC(=O)c1cc(-c2cncc(-c3cc(NC(=O)c4ccnc(C5(C#N)CC5)c4)ccc3C)n2)ccn1 [Example 138]
7,≤ 100 nM,CNC(=O)c1cc(-c2cc(-c3cc(NC(=O)c4ccnc(C(C)(C)C#N)c4)cnc3C)ccn2)ccn1 [Example 158]
8,≤ 100 nM,CNC(=O)c1cc(-c2nccc(-c3cc(NC(=O)c4ccnc(C5(C#N)CC5)c4)ccc3C)n2)ccn1 [Example 175]
9,≤ 100 nM,Cc1ccc(NC(=O)c2ccnc(C3CC3)c2)cc1-c1cncc(-c2ccnc(NC(=O)C3CC3)c2)n1 [Example 184]

# Reference: patent US12319655B2, “RAF kinase inhibitors and methods of use thereof” (Deciphera Pharmaceuticals, LLC, priority 2021, dated 2025)
